Here are results for five molecules from PMC4504005, “Structural Basis for Receptor Activity-Modifying Protein-Dependent Selective Peptide Recognition by a G Protein-Coupled Receptor” (Molecular cell, 2015).

The test system of series [1] is MBP-hRAMP1.24-111-(Gly-Ser-Ala)3-hCLR.29-144-H6. Briefly: Apparent aggregation in AlphaScreen competition assay, RAMP1-(GSA)3-CLR protein. The settings on record: reaction buffer with 0.3% (v/v) Triton X-100, which minimized but did not completely prevent it; data not shown. The class given is physicochemical, human. An excerpt:
(§1) Supplemental Experimental Procedures
(§2) Plasmid construction and protein production and characterization. Bacterial pETDuet1 […]
(§3) numbers indicated) fusion proteins co-expressed with DsbC were constructed using the Gibson Assembly cloning method with Gibson Assembly master mix (New England Biolabs). Plasmids for expression of tagged full-length CLR and RAMP1 or -2 receptors in mammalian cells were previously described (Barwell et al., 2010; Watkins et al., 2014). Site directed mutagenesis was performed with the QuikChange II kit (Agilent) or using the Gibson Assembly method. Primer sequences are available upon request. All constructs were verified by automated DNA sequencing.
(§4) The tethered ECD fusion proteins were expressed in E. coli, purified, and characterized for peptide binding with an AlphaScreen peptide binding assay as previously described (Moad and Pioszak, 2013), except that the AlphaScreen competition assays also included 0.3% (v/v) Triton X-100 in the reaction buffer. Triton X-100 […]
Ser-Ala)3-hCLR.29-144-H6 proteins (data not shown).
CGRP analog prevented it from fully competing the binding signal to background levels […]
receptor crystallization construct are likely a bit higher than the true values. Competitor
(Bead proximity is the source of the signal in Alpha formats.)

Series [2] deals with T1, MBP-RAMP1 ECD-(GSA)3-CLR ECD-H6 (Homo sapiens, UniProt O60894+Q16602).
T1 construct: made in house; host or cells: E. coli (co-expressed with DsbC)
The series is described as follows: Competition AlphaScreen, CGRP receptor ECD complex. The note with it: for binding of swap peptide: competition AlphaScreen, Figures 6E-6G, 100 nM protein, 100 nM biotin-CGRP. In kind it is binding.
Excerpt: (§5) Plasmid construction, mutagenesis, protein expression, purification, and the AlphaScreen peptide-binding assay were as previously described with minor modifications to the AlphaScreen assay ([Hill and Pioszak, 2013]; [Moad and Pioszak, 2013]). Synthetic peptides were from RS Synthesis, Bachem, or were synthesized in-house. Details are in Supplemental Experimental Procedures.
as §1, §2
(§6) numbers indicated) fusion proteins co-expressed with DsbC were constructed using the Gibson Assembly cloning method with Gibson Assembly master mix (New England […]
(§7) 2014). Site directed mutagenesis was performed with the QuikChange II kit (Agilent) or using the Gibson Assembly method. Primer sequences are available upon request. All constructs were verified by automated DNA sequencing.
as §4
(§8) reactions in which the donor and acceptor beads were brought together by a Biotin-(Gly)6-(His)6 peptide. The binding experiments were conducted at least three times with each independent experiment performed with duplicate samples. pIC50 values are stated as the mean of the replicate independent experiments ± S.E.M. Although slight variation […]
(§9) Peptides. […]

Series [3] concerns the target T2, MBP-RAMP2 ECD [L106R]-(GSA)3-CLR ECD-H6 (Homo sapiens, UniProt O60895+Q16602, L106R).
T2 construct: MBP-hRAMP2.55-140 [L106R]-(Gly-; Ser-Ala)3-hCLR.29-144-H6 proteins; made in house; host or cells: E. coli (co-expressed with DsbC)
Briefly: Competition AlphaScreen, AM1 receptor ECD complex [L106R]. In kind it is binding. The note with it: for binding of swap peptide: competition AlphaScreen, Figures 6H-6J.
Excerpt: as §5, §1, §2, §6, §7, §4, §8, §9

In series [4] the target is T3, MBP-RAMP2 ECD-(GS)5-CLR ECD-H6 (WT RAMP2 ECD-CLR ECD fusion) (Homo sapiens, UniProt O60895+Q16602).
T3 construct: MBP-hRAMP2.55-140-(Gly-Ser-Ala)3-hCLR.29-144-H6; made in house; host or cells: E. coli
The series is described as follows: Competition AlphaScreen, WT RAMP2 ECD-CLR ECD fusion. In kind it is binding. The note with it: text (Fig S1C), approximate.
Excerpt: as §5, §1, §2, §3, §4

The mark [5] stands for this setting: 100 nM protein, 100 nM biotin-AM.
[6] abbreviates: Figure 6I, 100 nM protein, 100 nM biotin-AM, 0.3% Triton X-100, mean ± SEM, at least three independent experiments in duplicate, read-out: pIC50 (converted).

Like-named read-outs stand apart in the source and are kept apart here. Ends that are not written are not given here.

`CC(C)[C@H](NC(=O)[C@H](CC(=O)O)NC(=O)[C@@H](NC(=O)[C@@H]1CCCN1C(=O)[C@@H](NC(=O)[C@@H](N)Cc1ccccc1)C(C)C)[C@@H](C)O)C(=O)NCC(=O)N1CCC[C@H]1C(=O)N[C@@H](Cc1ccccc1)C(=O)N[C@@H](C)C(=O)N[C@@H](Cc1ccccc1)C(N)=O` [CGRPmut]: the apparent aggregation result in series [1] was “apparent aggregation”. Besides, the IC50 in series [2] is 0.457 µM.

As for DKDNVAPRSKISPQGY-NH2 [AM(37–52)], in series [3] (Figure 6J, 100 nM protein, 100 nM biotin-AM, 0.3% Triton X-100, mean ± SEM, at least three independent experiments in duplicate, read-out: pIC50 (converted)), the IC50 is 10 µM.

“AM(37–52)NH2 [Y52F]: C-terminal residue swap of minimal ECD complex-binding AM peptide”: the “binding of swap peptide” value in series [3] (setting [5]) is “exhibited significantly diminished binding to the AM1 receptor ECD complex”; in series [2] it was “did not gain increased affinity for the CGRP receptor ECD complex”.

Regarding `CC[C@H](C)[C@H](NC(=O)[C@H](CCC(N)=O)NC(=O)[C@H](Cc1c[nH]cn1)NC(=O)[C@H](C)NC(=O)[C@H](CC(C)C)NC(=O)[C@H](CCCCN)NC(=O)[C@H](CCC(N)=O)NC(=O)[C@@H](NC(=O)[C@@H](N)[C@@H](C)O)C(C)C)C(=O)N[C@@H](Cc1ccc(O)cc1)C(=O)N[C@@H](CCC(N)=O)C(=O)N[C@@H](Cc1ccccc1)C(=O)N[C@H](C(=O)N[C@@H](CC(=O)O)C(=O)N[C@@H](CCCCN)C(=O)N[C@@H](CC(=O)O)C(=O)N[C@@H](CCCCN)C(=O)N[C@@H](CC(=O)O)C(=O)N[C@@H](CC(N)=O)C(=O)N[C@H](C(=O)N[C@@H](C)C(=O)N1CCC[C@H]1C(=O)N[C@@H](CCCNC(=N)N)C(=O)N[C@@H](CO)C(=O)N[C@@H](CCCCN)C(=O)N[C@H](C(=O)N[C@@H](CO)C(=O)N1CCC[C@H]1C(=O)N[C@@H](CCC(N)=O)C(=O)NCC(=O)N[C@@H](Cc1ccc(O)cc1)C(N)=O)[C@@H](C)CC)C(C)C)[C@@H](C)O` [AM(22-52)NH2], the IC50 in series [4] was 5 to 15 µM; in series [3] (AlphaScreen competition, text (Figs S1C, S1H), approximate, read-out: IC50), 5 to 15 µM; in series [3] (Figure 6H, 100 nM protein, 100 nM biotin-AM, 0.3% Triton X-100, mean ± SEM, at least three independent experiments in duplicate, read-out: pIC50 (converted)), 12 µM; in series [3] (setting [6]) it was 14.5 µM.

FVPTDVGPFAY-NH2 [CGRPmut [F37Y]]: in series [3] (setting [6]), the IC50 was 16.2 µM. The “binding of swap peptide” value in series [3] (setting [5]) is on record as “gained the ability to bind the AM1 receptor ECD complex as strongly as AM”; in series [2], “retained CGRP receptor ECD complex binding”.
